Source: BigSolDB 2.1

CCN(CC)CCNC(=O)c1c(C)[nH]c(/C=C2\C(=O)Nc3ccc(F)cc32)c1C.O=C(O)C[C@H](O)C(=O)O
Conditions	solubility (mole fraction)
in PEG-400, 298.2 K	0.00634
in PEG-400, 303.2 K	0.0076
in PEG-400, 308.2 K	0.00996
in PEG-400, 313.2 K	0.0129
in PEG-400, 318.2 K	0.0167

solubility (mole fraction)
Conditions	in ethanol	in ethylene glycol	in isopropanol	in propylene glycol	in transcutol	in water
298.2 K	0.00277	0.00104	0.00634	0.00179	0.00997	3.72e-06
303.2 K	0.00321	0.00139	0.0076	0.00228	0.0117	4.74e-06
308.2 K	0.00372	0.00186	0.00996	0.00303	0.0136	6.09e-06
313.2 K	0.0043	0.00244	0.0129	0.00385	0.0163	8.46e-06
318.2 K	0.00516	0.00313	0.0167	0.00483	0.0187	1.05e-05
